The values below come from patent US20220081409A1, “PDE9 INHIBITOR AND USE THEREOF” (NANJING TRANSTHERA BIOSCIENCES CO., LTD., priority 2019, published 2022).

Data set [1] deals with T1, PDE9A2 enzyme (Homo sapiens, UniProt O76083).
T1 construct: purchased BPS 60090
The data set is described as follows: PDE9 enzymatic evaluation. The class given is biochemical. The note with it: fluorescence reading 480 nm/535 nm. As to the method: Experimental Example 1: PDE9 Enzymatic Evaluation
Test samples: the compounds disclosed herein, prepared according to the corresponding examples of the present invention.
Preparation of the compounds: Compounds were formulated into 10 mM compound stock solution in DMSO for long term storage. The obtained compound stock solution was 100-fold diluted with DMSO to give 100 μM compound mother liquor, which was 3-fold diluted with DMSO to give 8-10 concentration gradients of diluted compound mother liquor (100×).
Incubation with compound: Diluted compound mother liquor was pipetted into a 384-well plate using an ultramicro-liquid pipetting system (Echo); 200 nL of the diluted compound mother liquor and 10 μL of PDE9A2 enzyme solution were added to each compound well; after centrifugation at 1000 rpm for 1 min, the mixtures were incubated at room temperature for 15 min. Subsequently, 10 μL of the substrate mixture was added, and after centrifugation at 1000 rpm for 1 min, the resulting mixture was incubated at room temperature with oscillating for 30 min. Finally, stop solution was added to end the reaction, and the resulting reaction system was incubated at room temperature with oscillating for 60 min. In the maximum reading well (Max), the compound was replaced by solvent; in the minimum reading well (Min), the compound and the enzyme solution were replaced by solvent.
Detection: the fluorescence readings (F) at 480 nm/535 nm were detected using a microplate reader.
Calculation: The inhibition rate was calculated according to the following formula and IC50 was fitted using GraphPad Prism 5.0: […]

Data set [2] is described as follows: Liver microsomal stability in rat liver microsomes. The class given is in vitro ADME. To be noted: 0.5 mg protein/mL, 1 μM compound, 37° C. How it is done:
Experimental Example 2: Evaluation of Liver Microsomal Stability of Compounds Disclosed Herein
Test samples: the compounds disclosed herein and the compound I-8 of international patent application WO2017019723A1 (prepared by referring to the examples for synthesis in WO2017019723A1) having the following structural formula: […]
An appropriate amount of the compound was precisely weighed out and dissolved in DMSO to prepare a 5.0 mM stock solution. The 5.0 mM stock solution was diluted to 1.0 mM with DMSO, and then diluted with water to 10 μM compound working solution for later use (DMSO content in the reaction system: 0.1% v/v).
• (1) The liver microsomes (20 mg protein/mL) were taken out from a −80° C. refrigerator, pre-incubated on a 37° C. water bath thermostatic oscillator for 3 min, and thawed for use. • (2) A mixed solution of the incubation system (without compound and D-NADPH) was prepared according to “composition of the experimental incubation system” described above, and pre-incubated on a 37° C. water bath thermostatic oscillator for 2 min. • (3) Control group (without D-NADPH): 30 μL of water and 30 μL of compound working solution (10 μM) were added to 240 μL of the mixed solution of the incubation system in step (2), and the mixture was vortexed for 30 s and mixed well; the total volume of the mixture was 300 μL; the sample was duplicated. The mixture was placed on a 37° C. water bath thermostatic oscillator for incubation, and timing was started; the sampling was conducted at 0 min and 60 min. • (4) Sample group: 70 μL of […] solution (10 mM) and 70 μL of compound working solution (10 μM) were added to 560 μL of the mixed solution in step (2), and the total volume of the mixture was 700 μL; the mixture was vortexed for 30 s and mixed well; the sample was duplicated. The mixture was placed on a 37° C. water bath thermostatic oscillator for incubation, and timing was started; the sampling was conducted at 0 min, 5 min, 10 min, 20 min, 30 min and 60 min. • (5) The mixture was vortexed for 3 min, and centrifuged at 4000 rpm for 10 min. • (6) 50 μL of the supernatant was taken and added to 150 μL of water, and the resulting mixture was vortexed and mixed well before LC/MS/MS analysis.
The half-life (t1/2) and clearance (Cl) were calculated using the following first-order kinetic formula:
Vd=1/protein content in liver microsomes
Note: k denotes the slope of the logarithm of the remaining amount of a compound vs. time, Vd denotes apparent volume of distribution, and C0 denotes compound concentration at 0 h.
Experiment on Stability of the Compounds Disclosed Herein in Rat Liver Microsomes
In general terms: Liver microsomes are a subcellular fraction often used to study metabolism.

For data set [3], the target named is T2, human PDE9 (Homo sapiens, UniProt O76083). To be noted: background statement; cited from earlier work.
T2 sequence (O76083 whole entry): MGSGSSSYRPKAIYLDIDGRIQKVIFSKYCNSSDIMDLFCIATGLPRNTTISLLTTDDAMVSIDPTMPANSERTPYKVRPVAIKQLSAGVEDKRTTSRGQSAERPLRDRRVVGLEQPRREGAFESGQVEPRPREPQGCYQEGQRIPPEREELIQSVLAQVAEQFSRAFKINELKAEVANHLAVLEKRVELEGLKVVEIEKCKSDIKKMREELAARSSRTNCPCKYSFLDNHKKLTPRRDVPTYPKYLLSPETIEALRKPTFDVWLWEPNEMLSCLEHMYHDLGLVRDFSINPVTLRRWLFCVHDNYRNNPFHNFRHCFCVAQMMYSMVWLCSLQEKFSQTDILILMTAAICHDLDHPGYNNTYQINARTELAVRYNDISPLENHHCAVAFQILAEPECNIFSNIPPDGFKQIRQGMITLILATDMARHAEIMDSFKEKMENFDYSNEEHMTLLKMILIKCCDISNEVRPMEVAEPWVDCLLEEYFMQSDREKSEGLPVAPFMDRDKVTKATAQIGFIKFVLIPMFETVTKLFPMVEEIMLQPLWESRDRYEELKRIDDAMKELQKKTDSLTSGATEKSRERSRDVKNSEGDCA
For data set [4], the target named is T2, human PDE9. The note with it: substrate of PDE9, background statement; read-out: binding constant (Km); cited from earlier work.

T1 sequence (O76083 1-533 isoform O76083-2): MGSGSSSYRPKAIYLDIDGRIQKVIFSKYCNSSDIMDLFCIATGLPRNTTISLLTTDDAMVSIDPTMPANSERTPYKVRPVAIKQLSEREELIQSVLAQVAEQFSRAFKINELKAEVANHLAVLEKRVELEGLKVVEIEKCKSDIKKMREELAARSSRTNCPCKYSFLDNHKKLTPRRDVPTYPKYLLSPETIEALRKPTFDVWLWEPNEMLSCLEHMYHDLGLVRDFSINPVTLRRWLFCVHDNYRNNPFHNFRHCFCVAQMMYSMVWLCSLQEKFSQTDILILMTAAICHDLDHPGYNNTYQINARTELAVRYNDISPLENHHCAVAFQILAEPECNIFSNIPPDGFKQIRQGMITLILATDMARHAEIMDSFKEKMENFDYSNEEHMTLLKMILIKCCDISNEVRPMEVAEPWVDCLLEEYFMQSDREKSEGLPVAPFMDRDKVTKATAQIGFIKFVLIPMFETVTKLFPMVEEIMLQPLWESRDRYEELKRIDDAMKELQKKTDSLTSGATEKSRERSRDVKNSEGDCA

What is called IC50 is the concentration that inhibits the measured activity by half. A higher IC50 goes with a need for much substance. The half-life is how long it takes for the measured level to halve. One may read the microsomal CLint as a measure of how fast metabolising enzymes remove a compound, apart from limits set by blood flow. In data set [1], `CNC(=O)c1ccc2[nH]c(=O)c(C#N)c(N3CCC4(CC3)CC4)c2c1` [Compound 96, 3-cyano-N-methyl-2-oxo-4-(6-azaspiro[2.5]octan-6-yl)-1,2-dihydroquinoline-6-carboxamide] showed an IC50 of 5 nM. In data set [2], this molecule displayed a half-life at 1 μM of 3.22 h and a microsomal CLint at 1 μM of 7.2 µL/min/mg.

In data set [1], `CCc1ccc2[nH]c(=O)c(C#N)c(N3CCC(C)(OC)CC3)c2c1` [Compound 107, 6-ethyl-4-(4-methoxy-4-methylpiperidin-1-yl)-2-oxo-1,2-dihydroquinoline-3-carbonitrile] came in with an IC50 of 8 nM.

In turn, `COC1(C)CCN(c2c(C#N)c(=O)[nH]c3ccc(C(C)(C)O)cc23)CC1` [Compound 109, 6-(2-hydroxypropan-2-yl)-4-(4-methoxy-4-methylpiperidin-1-yl)-2-oxo-1,2-dihydroquinoline-3-carbonitrile] came in with an IC50 in data set [1] of 15 nM. In data set [2], the half-life at 1 μM is 7.7 h and the microsomal CLint at 1 μM was 3 µL/min/mg. In the case of `COC1(C)CCN(c2c(C#N)c(=O)[nH]c3ccc(C(O)C4CC4)cc23)CC1` (centres unmarked) [Compound 130, 6-(cyclopropyl(hydroxy)methyl)-4-(4-methoxy-4-methylpiperidin-1-yl)-2-oxo-1,2-dihydroquinoline-3-carbonitrile], half-maximal inhibition in data set [1] (IC50) required 2 nM. In addition, in data set [2], the half-life at 1 μM turned out to be 2.82 h and the microsomal CLint at 1 μM amounted to 8.2 µL/min/mg. For `COCCOc1ccc2[nH]c(=O)c(C#N)c(N3CCC(C)(OC)CC3)c2c1` [Compound 145, 4-(4-methoxy-4-methylpiperidin-1-yl)-6-(2-methoxyethoxy)-2-oxo-1,2-dihydroquinoline-3-carbonitrile] the same measures were 12 nM, 2.13 h and 10.8 µL/min/mg. The molecule `COC1(C)CCN(c2c(C#N)c(=O)[nH]c3ccc(C)cc23)CC1` [Compound 158, 4-(4-methoxy-4-methylpiperidin-1-yl)-6-methyl-2-oxo-1,2-dihydroquinoline-3-carbonitrile] returned an IC50 in data set [1] of 12 nM. This lies in the double-digit nanomolar range. In turn, `COC1(C)CCN(c2c(C#N)c(=O)[nH]c3ccc(C(C)C)cc23)CC1` [Compound 179, 6-isopropyl-4-(4-methoxy-4-methylpiperidin-1-yl)-2-oxo-1,2-dihydroquinoline-3-carbonitrile] came in with an IC50 in data set [1] of 18 nM.

`COC1(C)CCN(c2c(C#N)c(=O)[nH]c3ccc(Br)cc23)CC1` [Compound 180, 6-bromo-4-(4-methoxy-4-methylpiperidin-1-yl)-2-oxo-1,2-dihydroquinoline-3-carbonitrile] showed an IC50 in data set [1] of 8 nM. In data set [2], this molecule came in with a half-life at 1 μM of 0.955 h and a microsomal CLint at 1 μM of 24.2 µL/min/mg. Take `N#Cc1c(N2CCCCCC2)c2ccccc2[nH]c1=O` [Compound I-8, reference compound]: in data set [2], the half-life at 1 μM turned out to be 0.792 h and the microsomal CLint at 1 μM was 29.2 µL/min/mg. Take `CC(C)Cn1c(=O)n(C)c(=O)c2[nH]cnc21` [IBMX]: the “inhibitory activity against PDE9” value in data set [3] is recorded as “no inhibitory activity or low inhibitory activity”. Regarding `CC(=O)Nc1ccc(-c2c[nH]c(=O)cn2)cc1` [SKF94120], the “inhibitory activity against PDE9” value in data set [3] is given as “no inhibitory activity or low inhibitory activity”. By Km is commonly meant the substrate concentration at which the rate is half of its maximum. `Nc1nc2c(ncn2[C@@H]2O[C@@H]3COP(=O)(O)O[C@H]3[C@H]2O)c(=O)[nH]1` [cGMP, cyclic guanosine monophosphate]: the Km in data set [4] is 0.17 µM. For the molecule `OCCN(CCO)c1nc(N2CCCCC2)c2nc(N(CCO)CCO)nc(N3CCCCC3)c2n1` [dipyridamole], the “inhibitory activity against PDE9” value in data set [3] is recorded as “no inhibitory activity or low inhibitory activity”. With `COc1ccc(C2CNC(=O)C2)cc1OC1CCCC1` (centres unmarked) [rolipram], the “inhibitory activity against PDE9” value in data set [3] is “no inhibitory activity or low inhibitory activity”. Regarding `CCOC(=O)C1=C[C@]2(CC)CCCN3CCc4c(n1c1ccccc41)[C@@H]32` [vinpocetine], in data set [3], the “inhibitory activity against PDE9” value was “no inhibitory activity or low inhibitory activity”.
